Measured values taken from ChEMBL document CHEMBL4665804, “Characterization of SPK 98, a Torin2 analog, as ATR and mTOR dual kinase inhibitor” (Bioorg Med Chem Lett, 2020).
In brackets after ≈: the same amount, converted by molar mass. Activity calls are given as the source filed them. The calls are words filed in the database; no cut-off is given here.

How the values were obtained:
[1] = test system: HCT-116; experiment: Growth inhibition of human HCT116 cells measured after 72 hrs by Celltiter-Glo assay; assay type: functional
[2] = target: Serine/threonine-protein kinase ATR (Homo sapiens) (UniProt Q13535); experiment: Inhibition of ATR in human HCT116 cells assessed as decrease in Chk1 phosphorylation at Ser317 residue at 250 nM treated for 1 hr prior to UV-irradiation exposure and measured after 1 hr by Immunoblot analysis; assay type: cell-based; conditions: HCT-116, time 2.0 hrs
Sequence of Serine/threonine-protein kinase ATR (Homo sapiens) (Q13535 whole entry, looked up): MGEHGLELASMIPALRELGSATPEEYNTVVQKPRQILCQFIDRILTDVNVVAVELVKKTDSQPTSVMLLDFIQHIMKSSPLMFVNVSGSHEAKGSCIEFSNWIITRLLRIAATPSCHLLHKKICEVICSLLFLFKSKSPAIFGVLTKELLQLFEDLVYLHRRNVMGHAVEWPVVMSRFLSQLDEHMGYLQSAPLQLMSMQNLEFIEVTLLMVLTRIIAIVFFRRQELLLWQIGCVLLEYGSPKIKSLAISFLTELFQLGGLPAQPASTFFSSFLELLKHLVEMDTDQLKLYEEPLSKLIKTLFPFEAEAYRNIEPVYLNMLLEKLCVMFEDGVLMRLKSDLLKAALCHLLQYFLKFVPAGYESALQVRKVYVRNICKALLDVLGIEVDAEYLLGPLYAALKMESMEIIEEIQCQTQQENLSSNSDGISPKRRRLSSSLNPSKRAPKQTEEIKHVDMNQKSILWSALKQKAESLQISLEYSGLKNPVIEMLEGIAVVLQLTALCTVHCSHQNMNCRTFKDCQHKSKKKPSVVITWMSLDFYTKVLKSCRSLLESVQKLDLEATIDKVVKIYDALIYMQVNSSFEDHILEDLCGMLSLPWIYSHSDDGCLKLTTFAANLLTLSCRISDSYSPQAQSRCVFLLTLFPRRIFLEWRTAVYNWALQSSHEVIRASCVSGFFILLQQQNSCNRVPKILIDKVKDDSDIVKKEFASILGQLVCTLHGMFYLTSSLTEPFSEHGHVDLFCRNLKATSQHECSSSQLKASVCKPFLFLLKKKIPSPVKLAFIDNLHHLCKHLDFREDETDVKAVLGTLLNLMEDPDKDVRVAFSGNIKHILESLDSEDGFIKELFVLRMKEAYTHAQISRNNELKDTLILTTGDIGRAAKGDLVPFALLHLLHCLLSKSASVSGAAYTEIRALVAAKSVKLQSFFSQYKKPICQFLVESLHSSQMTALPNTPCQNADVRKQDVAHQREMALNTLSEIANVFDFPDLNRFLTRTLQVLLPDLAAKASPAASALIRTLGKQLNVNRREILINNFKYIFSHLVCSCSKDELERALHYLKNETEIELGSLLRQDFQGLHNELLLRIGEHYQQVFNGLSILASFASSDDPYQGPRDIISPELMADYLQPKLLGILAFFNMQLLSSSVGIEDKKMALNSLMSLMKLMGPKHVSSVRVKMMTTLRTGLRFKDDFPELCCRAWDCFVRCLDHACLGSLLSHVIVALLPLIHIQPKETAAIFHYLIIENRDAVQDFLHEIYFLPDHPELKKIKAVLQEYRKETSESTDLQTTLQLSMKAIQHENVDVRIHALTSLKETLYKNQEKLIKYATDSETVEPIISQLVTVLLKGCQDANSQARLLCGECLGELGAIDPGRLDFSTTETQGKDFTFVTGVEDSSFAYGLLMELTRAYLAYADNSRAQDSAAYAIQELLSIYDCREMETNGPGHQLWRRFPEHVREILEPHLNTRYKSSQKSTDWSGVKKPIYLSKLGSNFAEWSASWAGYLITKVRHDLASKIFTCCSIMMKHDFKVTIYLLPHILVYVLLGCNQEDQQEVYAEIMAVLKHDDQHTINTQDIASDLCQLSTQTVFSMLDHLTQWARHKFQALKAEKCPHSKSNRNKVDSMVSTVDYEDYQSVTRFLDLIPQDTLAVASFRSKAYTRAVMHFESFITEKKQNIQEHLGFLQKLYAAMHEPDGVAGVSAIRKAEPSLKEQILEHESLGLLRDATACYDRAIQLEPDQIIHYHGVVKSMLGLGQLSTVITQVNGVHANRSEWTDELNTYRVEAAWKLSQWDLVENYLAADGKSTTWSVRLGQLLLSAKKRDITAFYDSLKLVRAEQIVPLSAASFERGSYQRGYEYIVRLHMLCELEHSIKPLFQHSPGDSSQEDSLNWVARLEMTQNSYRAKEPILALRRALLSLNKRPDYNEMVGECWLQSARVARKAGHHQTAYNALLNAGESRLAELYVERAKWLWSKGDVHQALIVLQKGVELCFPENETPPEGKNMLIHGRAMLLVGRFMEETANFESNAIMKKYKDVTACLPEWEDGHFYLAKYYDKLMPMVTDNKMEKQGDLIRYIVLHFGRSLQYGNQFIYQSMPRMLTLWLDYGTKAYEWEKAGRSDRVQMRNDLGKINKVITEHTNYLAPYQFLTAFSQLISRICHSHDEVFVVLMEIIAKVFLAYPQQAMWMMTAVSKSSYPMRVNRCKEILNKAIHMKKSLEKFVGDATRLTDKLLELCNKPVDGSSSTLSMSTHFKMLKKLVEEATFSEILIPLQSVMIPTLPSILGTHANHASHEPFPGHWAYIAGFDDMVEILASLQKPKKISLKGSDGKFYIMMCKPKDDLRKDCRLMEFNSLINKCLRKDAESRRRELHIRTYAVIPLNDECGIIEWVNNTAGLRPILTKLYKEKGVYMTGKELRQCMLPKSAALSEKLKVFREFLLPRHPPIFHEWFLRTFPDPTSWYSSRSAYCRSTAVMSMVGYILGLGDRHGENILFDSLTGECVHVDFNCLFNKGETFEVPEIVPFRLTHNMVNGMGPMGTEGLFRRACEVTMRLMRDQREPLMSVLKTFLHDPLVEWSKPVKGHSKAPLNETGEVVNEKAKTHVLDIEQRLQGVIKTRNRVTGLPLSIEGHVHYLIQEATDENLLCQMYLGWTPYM

[3] = target: Serine/threonine-protein kinase mTOR (Homo sapiens) (UniProt P42345); experiment: Inhibition of mTOR in human HCT116 cells assessed as decrease in p70S6K phosphorylation at Thr389 residue at 50 nM treated for 1 hr prior to UV-irradiation exposure and measured after 1 hr by immunoblot analysis; assay type: cell-based; conditions: HCT-116, time 2.0 hrs
[4] = target: Serine/threonine-protein kinase ATR (Homo sapiens) (UniProt Q13535); experiment: Inhibition of ATR in human HCT116 cells assessed as decrease in Chk1 phosphorylation at Ser317 residue by measuring decrease in foci formation at 50 nM treated for 1 hr prior to UV-irradiation exposure and measured after 1 hr by Immunofluorescence analysis; assay type: cell-based; conditions: HCT-116, time 2.0 hrs
[5] = test system: HeLa; experiment: Growth inhibition of human HeLa cells measured after 72 hrs by Celltiter-Glo assay; assay type: functional
[6] = target: Serine/threonine-protein kinase mTOR (Homo sapiens) (UniProt P42345); experiment: Inhibition of mTOR in human HCT116 cells assessed as decrease in p70S6K phosphorylation at Thr389 residue at 250 nM treated for 1 hr prior to UV-irradiation exposure and measured after 1 hr by immunoblot analysis; assay type: cell-based; conditions: HCT-116, time 2.0 hrs
[7] = target: T1, Serine-protein kinase ATM (Homo sapiens, UniProt Q13315); experiment: Inhibition of ATM in human HCT116 cells assessed as decrease in gammaH2AX phosphorylation at Ser139 residue by measuring decrease in foci formation at 50 nM treated for 1 hr prior to UV-irradiation exposure and measured after 1 hr by immunofluorescence assay; assay type: cell-based; conditions: hct-116, 2 h, 0.05 µM
[8] = Aqueous solubility of the compound relative to Torin2; assay type: physicochemical; conditions: buffer
[9] = test system: HCT-116; experiment: Inhibition of ATR/mTOR in human HCT116 cells harboring ATM+/-p53+/+ gene allele assessed as premature chromatin condensation at 50 nM treated for 1 hr prior to UV-irradiation exposure and measured after 1 hr by DAPI staining based confocal microscopic method; assay type: cell-based; conditions: time 2.0 hrs
[10] = Stability in human liver microsomes assessed as proportion of drug metabolized measured after 30 mins; assay type: ADME, Microsome; conditions: read-out: Drug metabolism
[11] = Stability in mouse liver microsomes assessed as proportion of drug metabolized measured after 30 mins; assay type: ADME, Microsome; conditions: read-out: Drug metabolism
[12] = Stability in rat liver microsomes assessed as proportion of drug metabolized measured after 30 mins; assay type: ADME, Microsome; conditions: read-out: Drug metabolism
[13] = Half life in human liver microsome; assay type: ADME; conditions: liver microsomes
[14] = Half life in mouse liver microsome; assay type: ADME; conditions: liver microsomes
[15] = Half life in rat liver microsome; assay type: ADME; conditions: liver microsomes
[16] = Intrinsic clearance in human liver microsome; assay type: ADME; conditions: liver microsomes, read-out: CLH
[17] = Intrinsic clearance in mouse liver microsome; assay type: ADME; conditions: liver microsomes, read-out: CLH
[18] = Intrinsic clearance in rat liver microsome; assay type: ADME; conditions: liver microsomes, read-out: CLH
[19] = target: T1, Serine-protein kinase ATM; experiment: Inhibition of ATM in human HCT116 cells assessed as decrease in Chk2 phosphorylation at Thr68 residue by measuring decrease in foci formation at 50 nM treated for 1 hr prior to UV-irradiation exposure and measured after 1 hr by immunofluorescence assay; assay type: cell-based; conditions: hct-116, 2 h, 0.05 µM
[20] = Aqueous solubility of the compound; assay type: physicochemical

Structure (SMILES) | GI50 [1] | inhibition [2] | inhibition [3] | inhibition [4] | GI50 [5] | inhibition [6] | inhibition (INH) [7] | fold change (FC) [8] | inhibition [9] | metabolised at 0.5 h [10] | metabolised at 0.5 h [11] | metabolised at 0.5 h [12] | half-life [13] | half-life [14] | half-life [15] | microsomal CLint [16] | microsomal CLint [17] | microsomal CLint [18] | inhibition (INH) [19] | solubility [20]
CS(=O)(=O)Nc1ccc(-c2ccc3ncc4ccc(=O)n(-c5cccc(C(F)(F)F)c5)c4c3c2)cn1 | 1420 nM | Active | Active |  |  |  |  |  |  |  |  |  |  |  |  |  |  |  |  | 
Nc1cnc(-c2ccc3ncc4ccc(=O)n(-c5cccc(C(F)(F)F)c5)c4c3c2)cn1 | 135 nM | Active | Active | inactive | 121 nM | Active | Not Active |  |  |  |  |  |  |  |  |  |  |  |  | 
O=c1ccc2cnc3ccc(-c4ccc(N5CCNCC5)nc4)cc3c2n1-c1cccc(C(F)(F)F)c1 | 56 nM | 100% | Active | Active | 50.4 nM |  | Not Active | 10 | Active | 55% | 11% | 41% | 31 min | 157 min | 42 min | 44 µL/min/mg | 9 µL/min/mg | 33 µL/min/mg | Not Active | 22 µM (≈ 11 µg/mL)
Nc1ccc(-c2ccc3ncc4ccc(=O)n(-c5cccc(C(F)(F)F)c5)c4c3c2)cn1 | 32.2 nM |  |  | Active | 98 nM |  |  |  | Active |  |  |  |  |  |  |  |  |  |  | 
O=c1ccc2cnc3ccc(-c4ccc(N5CCOCC5)nc4)cc3c2n1-c1cccc(C(F)(F)F)c1 | 800 nM | Active | Active |  | 330 nM |  |  |  |  |  |  |  |  |  |  |  |  |  |  | 
